The source of these data is patent US7652046B2, “Substituted thienopyrrole carboxylic acid amides, pyrrolothiazole carboxylic acid amides, and related analogs as inhibitors of casein kinase I” (Aventis Pharmaceuticals Inc., priority 2004, dated 2010).

Molecules are shown by their SMILES.

One assay addresses T1, Casein Kinase Iε (Homo sapiens, UniProt P49674).
T1 construct: made in house
The assay is described as follows: Casein Kinase Epsilon 33P-ATP Filter Plate Assay. It counts as biochemical. The text has this:
Casein Kinase Epsilon ^33P-ATP Filter Plate Assay for Screening CKIε Inhibitors
Purpose: This assay measures the ability of compounds to inhibit the phosphorylation of the substrate casein by the enzyme casein kinase 1ε using an in vitro ^33P-ATP filtration assay. […] Materials:
Equipment: • Beckman Biomek 2000 Liquid Handling Robot • Beckman Multimek 96 Automated 96 Channel Pipettor • Millipore Vacuum Manifold Basic Kit # MAVM0960R • Titertek Multidrop Liquid Dispenser • Packard TopCount NXT Liquid Scintillation Counter
Enzyme: • Casein Kinase 1ε final concentration 0.58 mg/ml obtained from fermentation and purification processes as are well known to one skilled in the art. The above are stored as 100 μL aliquots at minus 80° C.
Compounds: • Supply compounds for testing as frozen 10 mM compound stock dissolved in 100% DMSO. Assay Conditions:
Final total assay volume per well is equal to 50 μL that one prepares as follows: • 5 μL of diluted compound stock (10, 1, 0.1, 0.01 or 0.001 μM), • 5 μL of dephosphorylated casein final concentration 0.2 μg/μL, • 20 μL of CK1ε final concentration 3 ng/μL, and • 20 μL of γ-^33P-ATP final concentration 0.02 μCi/μL mixed with cold ATP (10 μM final). Methodology: • 1. Prepare 500 mL of fresh assay buffer: 50 mM Tris pH 7.5, 10 mM MgCl2, 2 mM DTT and 1 mM EGTA • 2. Obtain compounds to be evaluated as 10 μL of 10 mM stock dissolved in 100% DMSO. Use a Biomek 2000 liquid handling robot, make serial dilutions to yield 10, 1, 0.1, 0.01 and 0.001 μM final compound dilutions added as 5 μL additions to Falcon U bottom plates. […] A routine screening assay will consist of 32 compounds, which equals 4 assay plates. • 3. Assay plate maps are set up according to the following pattern CK1ePlateMap.xls
• 4. Add 5 μL of compound as indicated, then add 5 μL of dephosphorylated casein (dissolved in distilled H20)(0.2 μg/μL) and 20 μL CK1ε (3 ng/μL) to the appropriate wells. • 5. Finally add 20 μL γ-^33P-ATP (0.02 μCi/μL)/10 μM cold ATP (equals approximately 2×10^6 CPM per well). • 6. Vortes the Falcon U-Bottom assay plate containing the above 50 μL reaction volume and then incubate at room temperature for 2 hours. • 7. At the end of 2 hours, stop the reaction by the addition of 65 μL of ice cold 2 mM cold ATP (made up in assay buffer) to the assay plates using a Beckman Multimek. • 8. At the same time add 25 μL 100% ice cold TCA made up in distilled H20 to a matching number of Millipore MAPH filter plates. • 9. Using a handheld 8-channel pipettor, transfer 100 μL of the reaction mixture from the Falcon U-Bottom Plate to the Millipore MAPH filter plates presoaked with TCA. • 10. Mix the Millipore MAPH filter plates gently and allow to sit at room temperature for at least 30 minutes to precipitate the proteins. • 11. After 30 minutes, place the filter plates on a Millipore vacuum manifold and filter at no more than 8 mm Hg as the MAPH filters tend to “air lock” at higher vacuum settings. • 12. Wash the filter plates sequentially and filter with 2×150 μL 20% TCA, 2×150 μL 10% TCA and 2×150 μL 5% TCA (total of 6 washes per plate/900 μL per well). • 13. Allow the plates to dry overnight at room temperature. The next day add 40 μL Packard Microscint-20 Scintillation Fluid per well using a Titertek Multidrop dispenser; seal the plates and count for 2 minutes/well in a Packard Topcount NXT Scintillation Counter (to provide CPM values/well). Calculation: • 1. Import Counts Per Minute (CPM) data into a proprietary data calculation and archiving database (Activity Base by IDBS version 5.0). • 2. Column 1 for each plate reflects total phosphorylation activity of the enzyme in the absence of any inhibiting compound and thus represents 100%. Column 12 reflects any nonspecific phosphorylation/retained radioactivity activity in the absence of inhibiting compound and enzyme.

The subject of assay [1] is Mper1-luc Rat-1 fibroblasts (P2C4). Kind of assay: Cellular Circadian Assay (Mper1-luc reporter period lengthening). Particulars: effective concentration that induces a 1 hour lengthening of circadian period. It counts as cell-based. The text has this: The assay consists of Rat-1 fibroblasts stably expressing a Mper1-luc construct, thus enabling the determination of the rhythmic activation of the Mper1 promoter in living cells by repeatedly estimating luciferase activity by monitoring light-output over several days. The repeated measure format of the assay permits accurate and reproducible assessment of the concentration-dependent effects of CKIε inhibitors on circadian rhythm and provides the nexus for relating CKIε inhibition to circadian period alteration.
Cellular Circadian Assay Experimental Procedures
Stable transfection: Co-transfect Rat-1 fibroblast cultures at 30-50% confluence with vectors containing the Zeocin resistance selectable marker for stable transfection and an mPer-1 promoter-driven luciferase reporter gene. After 24-48 hours, split the cultures onto 96 well plates and maintain in growth media supplemented with 50-100 μg/mL Zeocin (Invitrogen #45-0430) for 10-14 days. Assess Zeocin-resistant stable transfectants for reporter expression by supplementing growth media with 100 μM luciferin (Promega #E1603) and assaying luciferase activity on a TopCount scintillation counter (Packard Model #C384V00). […] Select Mper1-luc Rat-1 fibroblasts clone P2C4 for compound testing. […] After synchronization, rinse cultures with 100 μL EMEM (Cellgro #10-010-CV) for 10 minutes at room temperature. […] Add compounds to be tested for circadian effects to CO2-independent media in 0.3% DMSO (final concentration). […] Estimate in vivo luciferase activity by measuring relative light output on a TopCount scintillation counter (Packard Model #C384V00). Transfer plates from incubator to reader using an ORCA robotic arm (Beckman Instruments) and SAMI-NT automated scheduling software (Version 3.3; SAGIAN/Beckman Instruments). Data Analysis: Use Microsoft Excel and XLfit (Version 2.0.9; IDBS) to import, manipulate and graph data. Perform period analysis either by determining the interval between relative light output minima over several days or by Fourier Transform. […] Analyze the data by fitting a hyperbolic curve to the data expressed as period change (y-axis) versus the concentration of test compound (x-axis) in XLfit and interpolate the EC[…]t+1h from this curve.

T1 sequence (P49674 whole entry): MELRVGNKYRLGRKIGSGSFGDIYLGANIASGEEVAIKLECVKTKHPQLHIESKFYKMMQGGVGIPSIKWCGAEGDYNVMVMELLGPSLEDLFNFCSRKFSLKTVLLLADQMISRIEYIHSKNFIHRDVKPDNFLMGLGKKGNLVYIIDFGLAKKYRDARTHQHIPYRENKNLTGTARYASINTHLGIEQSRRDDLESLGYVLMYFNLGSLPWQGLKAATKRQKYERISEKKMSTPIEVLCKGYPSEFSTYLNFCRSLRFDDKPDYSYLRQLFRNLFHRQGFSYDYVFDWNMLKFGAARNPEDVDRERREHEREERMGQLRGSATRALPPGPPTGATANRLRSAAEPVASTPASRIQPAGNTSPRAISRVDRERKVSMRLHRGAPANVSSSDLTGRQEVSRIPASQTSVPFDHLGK

The compound `NC(=O)c1[nH]c2sccc2c1Sc1ccccc1` [IIb, 4-(phenylsulfanyl)-6H-thieno[2,3-b]pyrrole-5-carboxylic acid amide] registered a Ki at Casein Kinase Iε of 811 nM. Besides, the “Cell Assay ECΔτ1h” value in assay [1] is 0.874 µM.

For `NC(=O)c1[nH]c2sccc2c1Sc1cccc(Br)c1` [IIg, 4-(3-Bromophenyl-sulfanyl)-6H-thieno[2,3-b]pyrrole-5-carboxylic acid amide], the inhibitory constant (Ki) at Casein Kinase Iε is 30.6 nM. Besides, the “Cell Assay ECΔτ1h” value in assay [1] was 2.492 µM.

Turning to `Cc1nc2c(Sc3cccc(F)c3)c(C(N)=O)[nH]c2s1` [IIn, 6-(3-Fluorophenyl-sulfanyl)-2-methyl-4H-pyrrolo[3,2-d]thiazole-5-carboxylic acid amide], the Ki at Casein Kinase Iε came out at 15.9 nM. The “Cell Assay ECΔτ1h” value in assay [1] was found to be 0.998 µM.

For `Cc1nc2c(Sc3cccc(Cl)c3)c(C(N)=O)[nH]c2s1` [IIo, 6-(3-Chlorophenyl-sulfanyl)-2-methyl-4H-pyrrolo[3,2-d]thiazole-5-carboxylic acid amide], the Ki on Casein Kinase Iε was 9.6 nM. Further, the “Cell Assay ECΔτ1h” value in assay [1] was 0.662 µM.

`NC(=O)c1[nH]c2scnc2c1Sc1ccccc1` [IIs, 6-Phenylsulfanyl-4H-pyrrolo[3,2-d]thiazole-5-carboxylic acid amide] showed a Ki at Casein Kinase Iε of 47 nM. Besides, the “Cell Assay ECΔτ1h” value in assay [1] was 1.155 µM.

The compound `COc1cccc(Sc2c(C(N)=O)[nH]c3scnc23)c1` [IIt, 6-(3-Methoxyphenyl-sulfanyl)-4H-pyrrolo[3,2-d]thiazole-5-carboxylic acid amide] returned a Ki on Casein Kinase Iε of 22 nM. Besides, the “Cell Assay ECΔτ1h” value in assay [1] turned out to be 1.974 µM.

`NC(=O)c1[nH]c2ccsc2c1Sc1ccccc1N` [Id, 6-(2-Aminophenyl-sulfanyl)-4H-thieno[3,2-b]pyrrole-5-carboxylic acid amide] yielded a Ki at Casein Kinase Iε of 110 nM. For the same compound, in assay [1], the “Cell Assay ECΔτ1h” value is >30 µM.

The Ki is the dissociation constant of the complex between target and ligand, obtained from inhibition or displacement.
